Measurements: PubChem BioAssay AID2060625 (Molecular Pharmacology Branch, DTP, NCI, 2025)

Tested on: 186277-243-T-J2-PDC spheroids with HUVEC/MSC, viability
Test: Anticancer human tumor 186277-243-T-J2-PDC patient-derived colon adenocarcinoma cell line growth inhibition [CLK]
Details: for IC50: curve of first compound; for viability, T/C: stronger effect = lower value; active means viability on the fitted dose curve at most 10% of control; inactive means the rest
Method in brief: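 Patient-derived tumor cells grown as complex spheroids with HUVEC endothelial cells and mesenchymal stem cells, treated with drug combinations. Concentrations descend in half-log steps from near clinical Cmax, or from 10 microM if Cmax unknown.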

[1] = second compound 0.0316 µM, first compound 0.0316 µM
[2] = second compound 0.0316 µM, first compound 0.1 µM
[3] = second compound 0.0316 µM, first compound 0.316 µM
[4] = second compound 0.0316 µM, first compound 1 µM
[5] = second compound 0.0316 µM, first compound 3.16 µM
[6] = second compound 0.0316 µM, first compound 10 µM
[7] = second compound 0.1 µM, first compound 0.0316 µM
[8] = second compound 0.1 µM, first compound 0.1 µM
[9] = second compound 0.1 µM, first compound 0.316 µM
[10] = second compound 0.1 µM, first compound 1 µM
[11] = second compound 0.1 µM, first compound 3.16 µM
[12] = second compound 0.1 µM, first compound 10 µM
[13] = second compound 0.316 µM, first compound 0.0316 µM
[14] = second compound 0.316 µM, first compound 0.1 µM
[15] = second compound 0.316 µM, first compound 0.316 µM
[16] = second compound 0.316 µM, first compound 1 µM
[17] = second compound 0.316 µM, first compound 3.16 µM
[18] = second compound 0.316 µM, first compound 10 µM
[19] = second compound 1 µM, first compound 0.0316 µM
[20] = second compound 1 µM, first compound 0.1 µM
[21] = second compound 1 µM, first compound 0.316 µM
[22] = second compound 1 µM, first compound 1 µM
[23] = second compound 1 µM, first compound 3.16 µM
[24] = second compound 1 µM, first compound 10 µM
[25] = second compound 3.16 µM, first compound 0.0316 µM
[26] = second compound 3.16 µM, first compound 0.1 µM
[27] = second compound 3.16 µM, first compound 0.316 µM
[28] = second compound 3.16 µM, first compound 1 µM
[29] = second compound 3.16 µM, first compound 3.16 µM
[30] = second compound 3.16 µM, first compound 10 µM
[31] = second compound 10 µM, first compound 0.0316 µM
[32] = second compound 10 µM, first compound 0.1 µM
[33] = second compound 10 µM, first compound 0.316 µM
[34] = second compound 10 µM, first compound 1 µM
[35] = second compound 10 µM, first compound 3.16 µM
[36] = second compound 10 µM, first compound 10 µM
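Further: compound exposure lasted seven days before readout.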
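Wherever viability, T/C is given: 100% = DMSO vehicle control wells.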

CC1(C)CCC(CN2CCN(c3ccc(C(=O)NS(=O)(=O)c4ccc(NCC5CCOCC5)c([N+](=O)[O-])c4)c(Oc4cnc5[nH]ccc5c4)c3)CC2)=C(c2ccc(Cl)cc2)C1 + CNC(=O)c1ccc(Nc2nc(OC3CCCC3)c3c(-c4ccc5nc(C)oc5c4)c[nH]c3n2)c(OC)c1
active: viability, T/C [6] 6.08% | viability, T/C [12] 4.37% | viability, T/C [18] 6.45%
1740 nM: IC50 (second compound 0.316 µM)
inactive: viability, T/C [1] 110% | viability, T/C [2] 109% | viability, T/C [3] 102% | viability, T/C [4] 102% | viability, T/C [5] 119% | viability, T/C [7] 81.6% | viability, T/C [8] 82% | viability, T/C [9] 85.8% | viability, T/C [10] 80% | viability, T/C [11] 67.9% | viability, T/C [13] 53.1% | viability, T/C [14] 57.5% | viability, T/C [15] 58.4% | viability, T/C [16] 56.8% | viability, T/C [17] 43.2% | viability, T/C [19] 36.1% | viability, T/C [20] 35.2% | viability, T/C [21] 37.5% | viability, T/C [22] 39.9% | viability, T/C [23] 33.1% | viability, T/C [24] 4.39% | viability, T/C [25] 35.9% | viability, T/C [26] 34.6% | viability, T/C [27] 35.1% | viability, T/C [28] 37.6% | viability, T/C [29] 32.1% | viability, T/C [30] 3.97% | viability, T/C [31] 34.7% | viability, T/C [32] 30.6% | viability, T/C [33] 40.3% | viability, T/C [34] 36% | viability, T/C [35] 35.9% | viability, T/C [36] 6.13%
< 31.6 nM: IC50 (second compound 1 µM) | IC50 (second compound 3.16 µM) | IC50 (second compound 10 µM)
6100 nM: IC50 (second compound 0.0316 µM)
4370 nM: IC50 (second compound 0.1 µM)

CC1COCCN1c1cc(C2(S(C)(=N)=O)CC2)nc(-c2ccnc3[nH]ccc23)n1 (stereo not drawn) + CNC(=O)c1ccc(Nc2nc(OC3CCCC3)c3c(-c4ccc5nc(C)oc5c4)c[nH]c3n2)c(OC)c1
1420 nM: IC50 (second compound 0.1 µM)
400 nM: IC50 (second compound 0.316 µM)
< 31.6 nM: IC50 (second compound 1 µM) | IC50 (second compound 3.16 µM) | IC50 (second compound 10 µM)
active: viability, T/C [24] 5.07% | viability, T/C [30] 5.1% | viability, T/C [36] 7.43%
inactive: viability, T/C [1] 109% | viability, T/C [2] 109% | viability, T/C [3] 105% | viability, T/C [4] 114% | viability, T/C [5] 35% | viability, T/C [6] 13% | viability, T/C [7] 80.7% | viability, T/C [8] 77.5% | viability, T/C [9] 78.7% | viability, T/C [10] 60% | viability, T/C [11] 26.6% | viability, T/C [12] 13.7% | viability, T/C [13] 55.8% | viability, T/C [14] 57% | viability, T/C [15] 51.5% | viability, T/C [16] 39% | viability, T/C [17] 15.8% | viability, T/C [18] 10.5% | viability, T/C [19] 35.6% | viability, T/C [20] 33.4% | viability, T/C [21] 31.2% | viability, T/C [22] 22.9% | viability, T/C [23] 10.2% | viability, T/C [25] 33.9% | viability, T/C [26] 31.6% | viability, T/C [27] 28.9% | viability, T/C [28] 21.6% | viability, T/C [29] 12.2% | viability, T/C [31] 34.5% | viability, T/C [32] 35.6% | viability, T/C [33] 33% | viability, T/C [34] 24.9% | viability, T/C [35] 13%
2510 nM: IC50 (second compound 0.0316 µM)

NC(=O)C(=Cn1cnc(-c2cc(C(F)(F)F)cc(C(F)(F)F)c2)n1)c1cncnc1 + CNC(=O)c1ccc(Nc2nc(OC3CCCC3)c3c(-c4ccc5nc(C)oc5c4)c[nH]c3n2)c(OC)c1
inactive: viability, T/C (second compound 0.0316 µM, first compound 0.00949 µM) 88.5% | viability, T/C (second compound 0.0316 µM, first compound 0.03 µM) 84.2% | viability, T/C (second compound 0.0316 µM, first compound 0.0949 µM) 79.1% | viability, T/C (second compound 0.1 µM, first compound 0.00949 µM) 54.5% | viability, T/C (second compound 0.1 µM, first compound 0.03 µM) 55.2% | viability, T/C (second compound 0.1 µM, first compound 0.0949 µM) 42.1% | viability, T/C (second compound 0.316 µM, first compound 0.00949 µM) 36.4% | viability, T/C (second compound 0.316 µM, first compound 0.03 µM) 37.7% | viability, T/C (second compound 0.316 µM, first compound 0.0949 µM) 17.6% | viability, T/C (second compound 1 µM, first compound 0.00949 µM) 25.6% | viability, T/C (second compound 1 µM, first compound 0.03 µM) 24.7% | viability, T/C (second compound 1 µM, first compound 0.0949 µM) 7.44% | viability, T/C (second compound 3.16 µM, first compound 0.00949 µM) 26.8% | viability, T/C (second compound 3.16 µM, first compound 0.03 µM) 24.6% | viability, T/C (second compound 10 µM, first compound 0.00949 µM) 28.3% | viability, T/C (second compound 10 µM, first compound 0.03 µM) 24.6%
46 nM: IC50 (second compound 0.1 µM)
152 nM: IC50 (second compound 0.0316 µM)
active: viability, T/C (second compound 0.0316 µM, first compound 0.3 µM) 7.94% | viability, T/C (second compound 0.0316 µM, first compound 0.949 µM) 3.02% | viability, T/C (second compound 0.0316 µM, first compound 3 µM) 5.16% | viability, T/C (second compound 0.1 µM, first compound 0.3 µM) 6.58% | viability, T/C (second compound 0.1 µM, first compound 0.949 µM) 3.16% | viability, T/C (second compound 0.1 µM, first compound 3 µM) 2.39% | viability, T/C (second compound 0.316 µM, first compound 0.3 µM) 2.14% | viability, T/C (second compound 0.316 µM, first compound 0.949 µM) 2.54% | viability, T/C (second compound 0.316 µM, first compound 3 µM) 1.77% | viability, T/C (second compound 1 µM, first compound 0.3 µM) 2.4% | viability, T/C (second compound 1 µM, first compound 0.949 µM) 1.17% | viability, T/C (second compound 1 µM, first compound 3 µM) 2.9% | viability, T/C (second compound 3.16 µM, first compound 0.0949 µM) 3.89% | viability, T/C (second compound 3.16 µM, first compound 0.3 µM) 0.59% | viability, T/C (second compound 3.16 µM, first compound 0.949 µM) 2.87% | viability, T/C (second compound 3.16 µM, first compound 3 µM) 3.05% | viability, T/C (second compound 10 µM, first compound 0.0949 µM) 4.11% | viability, T/C (second compound 10 µM, first compound 0.3 µM) 4.12% | viability, T/C (second compound 10 µM, first compound 0.949 µM) 0.92% | viability, T/C (second compound 10 µM, first compound 3 µM) 1.85%
< 9.49 nM: IC50 (second compound 0.316 µM) | IC50 (second compound 1 µM) | IC50 (second compound 3.16 µM) | IC50 (second compound 10 µM)

Nc1ccccc1NC(=O)c1ccc(CNC(=O)OCc2cccnc2)cc1 + CNC(=O)c1ccc(Nc2nc(OC3CCCC3)c3c(-c4ccc5nc(C)oc5c4)c[nH]c3n2)c(OC)c1
< 31.6 nM: IC50 (second compound 3.16 µM) | IC50 (second compound 10 µM)
1510 nM: IC50 (second compound 0.316 µM)
31.6 nM: IC50 (second compound 1 µM)
inactive: viability, T/C [1] 106% | viability, T/C [2] 107% | viability, T/C [3] 93.3% | viability, T/C [4] 92.9% | viability, T/C [5] 48% | viability, T/C [6] 11% | viability, T/C [7] 91.9% | viability, T/C [8] 96.8% | viability, T/C [9] 88% | viability, T/C [10] 104% | viability, T/C [11] 39.8% | viability, T/C [13] 53.6% | viability, T/C [14] 60.2% | viability, T/C [15] 64.2% | viability, T/C [16] 82.2% | viability, T/C [17] 23% | viability, T/C [19] 37.9% | viability, T/C [20] 38.8% | viability, T/C [21] 47.7% | viability, T/C [22] 54.1% | viability, T/C [23] 16.4% | viability, T/C [25] 33.7% | viability, T/C [26] 38.2% | viability, T/C [27] 39% | viability, T/C [28] 41.2% | viability, T/C [29] 9.98% | viability, T/C [31] 38.3% | viability, T/C [32] 32.1% | viability, T/C [33] 35.7% | viability, T/C [34] 35.3% | viability, T/C [35] 10.1%
2560 nM: IC50 (second compound 0.1 µM)
3050 nM: IC50 (second compound 0.0316 µM)
active: viability, T/C [12] 4.98% | viability, T/C [18] 3.58% | viability, T/C [24] 1.52% | viability, T/C [30] 1.71% | viability, T/C [36] 0.98%
